Measured values: patent US5840893A, “Compounds for treating infectious diseases” (priority 1996, dated 1998)
Structures can show the parent of a compound that is named as a salt. Where two headings read alike, the source gives them in different places.

Assays:
HIV-1 [1] = assay: Viral production in HIV-1-infected cultured monocytes at fixed 100 nM compound (Table II); format: cell-based; conditions: Human immunodeficiency virus 1, Monocyte, read-out: Viral Production (percentage of untreated control)
Method: Alternatively, the compounds may all be compared for inhibition of HIV replication at a fixed concentration. Presented in Table II are compounds that were used at a concentration of 100 nM to inhibit the production of HIV-1 in cultured monocytes infected with HIV-1 10 days prior to assay (10 ng of p24/10^6 cells) . The production of HIV-1 in each treated culture is reported as percentage of untreated control.

HIV-1 [2] = assay: AZT and Compound No. 2 in combination on HIV-1 infected monocyte cultures (RT activity); format: cell-based, HIV-1 in human monocyte cultures; conditions: for RT activity: (-) No. 2
Method: Primary human monocytes were obtained from peripheral blood by Ficoll-Hypaque centrifugation and adherence to plastic as described previously. Gartner S. P., et al., 1986, Science 233:215. Briefly, after Ficoll-Hypaque (Pharmacia) separation, PBMCs were washed 4 times with DMEM (the last wash was done at 800 rpm to remove platelets) and resuspended in monocyte culture medium [DMEM supplemented with 1 mM glutamine, 10% heat-inactivated human serum, 1% penicillin+streptomycin mixture (Sigma)] at a density of 6×10^6 cells/ml. Cells were seeded in 24-well plates (1 ml per well) and incubated for 2 h at 37° C., 5% CO2. Following incubation, cells were washed 3 times with DMEM to remove non-adherent cells and incubation was continued in monocyte culture medium supplemented with 250 U/ml human M-CSF (Sigma). Cells were allowed to mature for 7 days prior to infection with the monocyte-tropic strain, HIV-1ADA. Nuovo, G. J., et al., 1992, Diagn. Mol. Pathol. 1:98. Two hours after infection, cells were washed with medium and cultured in RPMI supplemented with 10% human serum. In experiments where PCR analysis was performed, virus was pretreated with RNAse-free DNAse (Boehinger-Mannheim)for 2 h at room temperature and then filtered though a 0.2 μm pore nitrocellulose filter prior to infection.
For the reverse transcriptase (RT) assay, 10 μl of culture supernatant was added to 40 μl of reaction mixture (final composition was 50 mM Tris-HCl, pH 7.8; 20 mM KCl; 5 mM MgCl2; 1 mM DTT; 0.1% Triton X-100; 0.2 OD/ml polyA; 0.2 OD/ml oligo(dT)12-18; and 40 μCi/ml ^3 H-dTTP (76 Ci/mmol, DuPont) and incubated 2 hr at 37° C. 5 μl of the reaction mixture was then spotted onto the DE 81 (Whatman) paper. Paper was air dried and washed 5 times with 5% Na2 HPO4, followed by rinsing with distilled water. After air drying, paper was put on a Flexi Filter plate (Packard), covered with scintillation fluid and counted in a Top Count Microplate Counter (Packard). Results are expressed as counts per minute in 1 ml of supernatant (cpm/ml).
In view of these premises, the effects on HIV-1 replication in human monocyte cultures of the various concentrations of AZT, alone or in combination with 100 nM Compound No. 2, were tested using the protocols of Sections 6.2.1 and 6.2.2. Drugs were added to the monocyte cultures together with HIV-1 at about 10^5 TCID/ml. The concentration of drugs was maintained on refeeding. HIV-1 replication was assessed by assay of the supernatant for reverse transcriptase activity. The results are expressed as mean±std. dev. (cpmx10^-3) in Table V.

mice = assay: Toxicity study: median lethal dose in mice, i.p.; format: in vivo
Method: The doses of compounds of the invention found to be lethal to 50% of the mice (LD50) were determined by intraperitoneal injection of groups of five animals with increasing doses of each compound. CNI-0294 was administered from 0, 2, 10, 20, 40, 80, 160, 320, 640, 1280 mg/kg in 0.5 ml of water/HCl; CNI-1594 at 0, 2.4, 5, 10, 20, 40, 80 mg/kg in 0.5 ml of water/HCl; CNI-1794 at 0, 20, 50, 80 mg/kg in 0.5 ml of water/HCl; and CNI-1894 at 0, 10, 20, 40, 80, 240, 480, 960 mg/kg in water/HCl. […] The percentage of animals in each group which died were utilized to calculate the LD50 by non-linear curve fitting with the Enzfit software (Elsevier Bioscience; Cambridge, UK) programmed with the Chou equation (Chou 1976, J Theor Biol 39:253-276)).
The compounds (FIGS. 4A-E), were screened for toxicity via a modified LD50 assay procedure as described above in an outbred strain of mice.

in vitro = in vitro ADME, mouse (ND4 Swiss Webster); conditions: for number of metabolites: mouse liver post-mitochondrial supernatant, NADPH
Method: Several female ND4 Swiss Webster mice were euthanized by carbon dioxide inhalation and the livers excised and rinsed with ice cold phosphate buffered saline (pH 7.4). The livers were minced, gently homogenized in 50 mM phosphate buffer (pH 7.4) with a Dounce homogenizer, and centrifuged at 9600×g for 20 min. The post-mitochondrial supernatant was kept, glycerol added to 20%, and frozen at -70° C. in 1.0 ml aliquots until used. For each incubation, 1.0 ml of a 1.0 mg/ml drug solution was added to 3.0 ml of 50 mM phosphate buffer (pH 7.4), 1.0 ml of 2 mg/ml NADPH in 50 mM phosphate (pH 7.4), and 1.0 ml of the post-mitochondrial supernatant. Five hundred μl of each incubate was then immediately transferred to an ice-cold tube to provide the zero-time sample, and addition 500 μl aliquots removed to ice-cold tubes at 8, 15, 30, and 60 min. The samples were then extracted, and analyzed by HPLC as described in section 7.1. Control incubations were also performed where drug or post-mitochondrial supernatant was omitted. […] Peaks in the CNI compound incubations which increased over time, and were not present in control samples lacking the enzyme preparation were treated as putative metabolites.

[3] = tested on: Plasmodium falciparum clone Dd2; assay: Antimalarial activity in vitro, hypoxanthine incorporation, clone Dd2; format: cell-based; conditions: for IC50: Plasmodium falciparum, DD2, read-out: IC50 ± standard deviation
Method: The antimalarial activity of the compounds was determined essentially as described in Desjardins et al. supra. Fifty Al of various concentrations of a compound of the invention, chloroquine, or pyrimethamine were added to the wells of microtiter plates, followed by 200 Al of ring-stage, synchronized, P. falciparum-infected erythrocytes (final hematocrit=1.5%, final parasitemia=1-5%). The plates were incubated for 24 hr in a candle jar kept at 37° C., and then 25 μl of [^3 H]-hypoxanthine (Amersham, Arlington Heights, Ill.; 2.5 μl Ci/well) was added. The plates were then incubated for a further 24 hr, before harvesting onto Unifilter-96 GF/C filter-microplates (Packard; Meriden, Conn.). Twenty-five μl of Microscint scintillation fluid (Packard) was added to each well of the filter-microplate, which was subsequently counted in a Top-count microplate scintillation counter (Packard). The percent of [^3 H] -hypoxanthine uptake relative to control infect-erythrocytes was used to determine the IC50 value for the compounds by non-linear regression for LD50 determination.
The Dd2 clone of P. falciparum, which was both chloroquine and pyrimethamine resistant, was utilized to compare the antimalarial activity of the remaining CNI compounds (Table VIII).

[4] = i.p., 50 mg/kg, water
Method: (§1) Standard addition curves for each test compound were constructed by adding increased amounts of drug to mouse or human A^+ plasma (Long Island Blood Services; Melville, N.Y.). […] The eluted sample was reduced to dryness in a rotary evaporator and resuspended in 1.0 ml Buffer A.
(§2) Female ND4 Swiss Webster mice (21-24 g) were obtained from Harlan Sprague Dawley (Indianapolis, Ind.) and randomly placed in groups of five in cages with free access to food and water. […] The other CNI compounds were administered intraperitoneally or by oral gavage as a solution in water titrated with sufficient HCl to dissolve the drug. At various time points, ranging from 5 min to 4 days, a single group of animals was euthanized by carbon dioxide inhalation and bled by cardiac puncture using heparin as an anticoagulant. The blood from the five mice in the group was pooled and centrifuged at 14000×g for 10 min. The volume of plasma was measured, and equal volume of Buffer A added, and the mixture extracted and analyzed as described above, except that the dried eluates were resuspended in 200 μl Buffer A and 100 μl was injected onto the high performance liquid chromatography (HPLC) system.
(§3) The area under the plasma concentration-time curve (AUC) was determined, and bioavailability was measured as AUCoral /AUCi.p.. […] The volume of distribution (VD) was calculated as dose/B, and the total clearance rate (Cltot) calculated as β*VD. Cmax and tmax are the maximal plasma concentration and time of this measurement, respectively.

in vivo = conditions: mouse, plasma, ip, 50 mg/kg
Method: as §1, §2, §3

HIV-1 [5] = assay: Inhibition of HIV-1 replication in cultured macrophages (Table I); format: cell-based; conditions: Human immunodeficiency virus 1, Macrophage; 50% inhibition of viral growth, RT or p24, macrophages
Method: A quantitative measurement of the activity of the compounds of the invention to block the replication of HIV-1 in non-dividing cells can be determined by culture of a macrophage-tropic strain of HIV-1 on peripheral blood-derived macrophages. The cells are cultured for 5-6 days prior to infection in a medium consisting of DMEM supplemented with 10% type A/B human serum and 200 U/ml Macrophage Colony Stimulating Factor, with half the medium changed after 3 days, to reach a density of about 10^6 cells per 5 ml well. A macrophage-tropic viral stock may be grown on these cells. The concentration of infectious particles in the stock is estimated by measurement of p24 antigen concentration.
To test the effect of compounds of the invention on HIV- 1 infection in the above-described culture system, the medium is removed and replaced with medium containing HIV-1 at a concentration of 1 ng of p24 (10^4 TCID50 /ml (TCID=tissue culture infectious doses)) and a known concentration of the compound of the invention (the inhibitor). After 24 hours, the cultures are washed to remove non-adherent virus and the culture is re-fed with medium containing the inhibitor at the desired concentration. The amount of replication of HIV-1 is estimated by an assay of the reverse transcriptase activity or by an assay of the concentration of p24 antigen in the culture medium every 2-3 days throughout the post-infection period. In a preferred embodiment the anti-HIV potency of the candidate drug is measured by comparison of the concentration of reverse transcriptase (RT) or of p24 antigen in the medium of the treated and control cultures at the time of the peak of these values in non-treated control cultures, that is about day 5 or 6 post-infection. Repetition at various levels of inhibitor allows for the calculation of the concentration of inhibitor that achieves 50% inhibition of viral growth, IC50. Table I discloses the IC50 of various inhibitors.

[6] = 100 nM compound, monocytes infected 10 days prior, 10 ng p24/10^6 cells

Question: With `CC(=O)c1cccc(C(C)=O)c1N` [2,6-diacetylaniline] as the compound, how does the activity at 0.1 µM (HIV-1 [1]; [6]) read?
Answer: 28%

Question: With `CC(=O)c1cncc(C(C)=O)c1` [3,5-diacetylpyridine] as the compound, how does the activity at 0.1 µM (HIV-1 [1]; [6]) read?
Answer: 58%

Question: Which inhibition at 10 pM (HIV-1 [2]; Human immunodeficiency virus 1, Monocyte, 264 h, read-out: reduction in RT activity) does the source give for `Cc1cn([C@H]2C[C@H](N=[N+]=[N-])[C@@H](CO)O2)c(=O)[nH]c1=O` [AZT] here?
Answer: ~20%

Question: And the RT activity (HIV-1 [2]; day-7, AZT 10 pM)?
Answer: 0.92 ± 0.21 cpmx10^-3

Question: What about the RT activity (HIV-1 [2]; day-7, AZT 100 pM) of the same compound?
Answer: 0.79 ± 0.14 cpmx10^-3

Question: And the RT activity (HIV-1 [2]; day-7, AZT 1 nM)?
Answer: 0.60 ± 0.28 cpmx10^-3

Question: What about the RT activity (HIV-1 [2]; day-7, AZT 10 nM) of the same compound?
Answer: 0.05 ± 0.02 cpmx10^-3

Question: And the RT activity (HIV-1 [2]; day-11, AZT 10 pM)?
Answer: 1.63 ± 0.81 cpmx10^-3

Question: And the RT activity (HIV-1 [2]; day-11, AZT 100 pM)?
Answer: 1.34 ± 0.59 cpmx10^-3

Question: And the RT activity (HIV-1 [2]; day-11, AZT 1 nM)?
Answer: 1.07 ± 0.49 cpmx10^-3

Question: And the RT activity (HIV-1 [2]; day-11, AZT 10 nM)?
Answer: 0.08 ± 0.03 cpmx10^-3

Question: Which activity at 0.1 µM (HIV-1 [1]; [6]) does the source give for `CC(=O)c1cc(N)cc(C(C)=O)c1` [CNI-1894, 3,5-diacetylaniline] here?
Answer: 20%

Question: And the “LD50 (median lethal dose)” value (mice)?
Answer: 258.64 ± 1.37 mg/kg

Question: And the “signs and time of toxic reactions / death” value (mice)?
Answer: died 2-3 days post injection, and showed no sign of any immediate toxicity

Question: And the tolerability (mice)?
Answer: reasonably well tolerated

Question: And the number of metabolites (in vitro)?
Answer: one minor and one major metabolite

Question: And the metabolised at 1 h (in vitro; mouse, liver post-mitochondrial supernatant, 60 min incubation, by peak area, read-out: drug altered (metabolic conversion))?
Answer: 17.3%

Question: What about the IC50 [3] of the same compound?
Answer: > 200 µM

Question: What about the “antimalarial activity at the highest concentration tested” value ([3]; clone Dd2, 200 μM) of the same compound?
Answer: inactive at the highest concentration tested

Question: And the “A (zero time intercept, distribution phase)” value [4]?
Answer: 14.93 µg/mL

Question: What about the “B (zero time intercept, elimination phase)” value [4] of the same compound?
Answer: 0.15 µg/mL

Question: What about the VD [4] of the same compound?
Answer: 6.60 L

Question: And the t1/2α [4]?
Answer: 34.8 min

Question: And the t1/2β [4]?
Answer: 23.10 h

Question: What about the α [4] of the same compound?
Answer: 1.19 h⁻¹

Question: What about the CL/F (in vivo) of the same compound?
Answer: 3.3 mL/min

Question: And the k el (in vivo)?
Answer: 8.33e-06 s⁻¹

Question: For `CC(=O)c1cc(NC(=N)NC(=N)N)cc(C(C)=O)c1` [Compound No. 12, N-(3,5-diacetylphenyl)biguanide hydrochloride], which activity at 0.1 µM (HIV-1 [1]; [6]) is on record?
Answer: 12%

Question: With `CC(=O)c1cc(Nc2nc(N)nc(N)n2)cc(C(C)=O)c1` [Compound No. 13, 2-(3,5-diacetylphenyl)amino-4,6-diamino-1,3,5-triazine] as the compound, how does the activity at 0.1 µM (HIV-1 [1]; [6]) read?
Answer: 14%

Question: Which IC50 (HIV-1 [5]) does the source give for `CC(=O)c1cccc(Nc2cc(C)[n+](C)c(N)n2)c1` [Compound No. 14, 2-amino-4-(3-acetylphenyl)amino-1,6-dimethylpyrimidinium iodide] here?
Answer: 10 nM

Question: With `CC(=O)c1ccc(Nc2cc(C)nc(N)n2)cc1` [Compound No. 17, 2-amino-4-(4-acetylphenyl)amino-6-methylpyrimidine] as the compound, how does the activity at 0.1 µM (HIV-1 [1]) read?
Answer: 20%

Question: What about the “LD50 (median lethal dose)” value (mice) of the same compound?
Answer: 48.93 ± 0.12 mg/kg

Question: What about the “LD50 compared with CNI-1594” value (mice) of the same compound?
Answer: identical to that for CNI-1594

Question: And the “signs and time of toxic reactions / death” value (mice)?
Answer: suggested a lethal neurotoxicity

Question: With `Cc1cc(Nc2ccccc2)nc(N)n1` [Compound No. 45, 4-phenylamino-2-amino-6-methylpyrimidine] as the compound, how does the IC50 [3] read?
Answer: 25.1 ± 0.72 µM

Question: With `N=C(N)c1ccc(OCCCCCOc2ccc(C(=N)N)cc2)cc1` [pentamidine, reference compound] as the compound, how does the number of metabolites (in vitro) read?
Answer: seven
